{"source": "patent US20050079159A1", "about": "“In vivo bioreactors” (Massachusetts Instiute of Technology, priority 2001, published 2005)", "tested_on": "periosteal explants", "experiment": "In vitro periosteal chondrogenesis, organ culture model in alginate gel suspension", "type": "cell-based", "details": "10 ng/ml; for Chondrogenesis (H & E; Safranin-O): first two weeks", "method": "A further in vitro study of periosteal chondrogenesis has been performed to evaluate an organ culture model using an alginate gel suspension. Briefly, periosteal explants of approximate dimensions 3×3 mm were cultured in an alginate gel suspension and supplemented with either TGF-β1, b-FGF, a combination of the two, or in the absence of growth factors. b-FGF and TGF-β1 were administered at a concentration of 10 ng/ml every two days at each media change for the first week and first two weeks of in vitro culture respectively.\nAdditionally the cultures were supplemented daily with 50 μg/ml ascorbic acid for the first four weeks of in vitro culture. Results from histological analysis (H & E; and Safranin-O staining) of the explants performed at 1, 3, 6 and 8 week timepoints, were similar to those from the organ culture model utilizing the agarose gel (data not shown). Namely, after a period of 1 week in vitro culture, none of the explants stained positive for glycosaminoglycans using Safranin-O staining. Significant neo-chondrogenesis from the periosteum was not observed for explants cultured in the absence of added growth factors or supplemented with b-FGF alone over the period of 8 weeks. […] Safranin-O stains of typical periosteal explants after 1, 3, 6 and 8 weeks in vitro culture when b-FGF and TGF-β1 were administered for the first week and first two weeks of in vitro culture were observed.", "data": [{"substance": "TGF-β1: transforming growth factor", "values": [{"measurement": "Chondrogenesis (H & E; Safranin-O)", "setting": "after 3 weeks in vitro culture", "result": "apparent"}, {"measurement": "Chondrogenesis (H & E; Safranin-O)", "setting": "after 8 weeks in vitro culture", "result": "most pronounced"}]}, {"substance": "b-FGF: basic fibroblast growth factor", "values": [{"measurement": "Significant neo-chondrogenesis from the periosteum (H & E; Safranin-O)", "setting": "over the period of 8 weeks in vitro culture", "result": "not observed"}]}]}
